According to US11691949B2, “Quinoline sulfonamide compounds and their use as antibacterial agents” (OTAGO INNOVATION LIMITED, priority 2017, dated 2023):
Values after ≈ are worked out from the molar mass of the structure shown. Where two headings read alike, the source gives them in different places.

How the values were obtained:
Assay type in all cases: cell-based
S. uberis ATCC 19436 = experiment: MIC by broth microdilution, S. uberis; details: Streptococcus uberis, read-out: S. uberis ATCC 19436 MIC
Method in brief: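 Streptococcus uberis ATCC 19436 was tested in Todd Hewitt Broth by broth microdilution in 96-well flat bottom plates, in biological triplicate. Overnight cells were diluted to OD600 of approximately 0.025, giving about 5×10^5 cfu/mL in the wells. Compounds were serially diluted two-fold to 200 μl, incubated 24 h at 37° C. and 200 rpm, and the MIC was taken from OD600.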

S. aureus ATCC 6538 = experiment: MIC by broth microdilution, S. aureus; details: Staphylococcus aureus, read-out: S. aureus ATCC 6538 MIC
Method in brief: (§1)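 Two-fold serial dilutions were tested in broth at ~5×10^5 cfu/mL: S. aureus in TSB or CAMHB, E. coli in LB or CAMHB, with 50 μM zinc sulphate added as required. After 24 h at 37° C, 200 rpm, MIC was the lowest concentration showing no growth by OD600.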

E. coli ATCC 10596 = experiment: MIC by broth microdilution, E. coli; details: Escherichia coli, read-out: E. coli ATCC 10536 MIC
Method in brief: as §1

[1] = ATCC 10536 / ATCC 10596, No Zinc
[2] = ATCC 10536 / ATCC 10596, Zinc (50 μM)

SMILES | MIC (S. uberis ATCC 19436; ATCC19436, No Zinc) | MIC (S. uberis ATCC 19436; ATCC19436, Zinc (50 μM)) | MIC (S. aureus ATCC 6538; ATCC6538, No Zinc) | MIC (S. aureus ATCC 6538; ATCC6538, Zinc (50 μM)) | MIC (E. coli ATCC 10596; [1]) | MIC (E. coli ATCC 10596; [2])
CN(C)Cc1ccc2cccc(NS(=O)(=O)c3ccccc3Br)c2n1 [ZDR202, 2-Bromo-N-(2-((dimethylamino)methyl)quinolin-8-yl)benzenesulfonamide] | 256 µg/mL (≈ 609 µM) | 0.125 µg/mL (≈ 0.297 µM) | 256 µg/mL (≈ 609 µM) | > 256 µg/mL | > 256 µg/mL | > 256 µg/mL
CC(C)(C)NCc1ccc2cccc(NS(=O)(=O)c3ccc(C(F)(F)F)cc3)c2n1 [ZDR135, N-(2-((tert-Butylamino)methyl)quinolin-8-yl)-4-(trifluoromethyl)benzenesulfonamide] | 128 µg/mL (≈ 293 µM) | 0.25 µg/mL (≈ 0.571 µM) | 32 µg/mL (≈ 73.1 µM) | 64 µg/mL (≈ 146 µM) | > 256 µg/mL | > 256 µg/mL
CN(C)Cc1ccc2cccc(NS(=O)(=O)c3ccc(C(N)=O)cc3)c2n1 [ZDR073, 4-(N-(2-((Dimethylamino)methyl)quinolin-8-yl)sulfamoyl)benzamide] | > 256 µg/mL | 8 µg/mL (≈ 20.8 µM) | > 256 µg/mL | > 256 µg/mL | > 256 µg/mL | > 256 µg/mL
CS(=O)(=O)NCCNCc1ccc2cccc(NS(=O)(=O)c3ccc(C(F)(F)F)cc3)c2n1 [ZDR180, N-(2-(((2-(Methylsulfonamido)ethyl)amino)methyl)quinolin-8-yl)-4-(trifluoromethyl)benzenesulfonamide] | > 256 µg/mL | 0.5 µg/mL (≈ 0.995 µM) | 64 µg/mL (≈ 127 µM) | 256 µg/mL (≈ 509 µM) | 128 µg/mL (≈ 255 µM) | > 256 µg/mL
CN(C)Cc1ccc2cccc(NS(=O)(=O)c3cccc(O)c3)c2n1 [ZDR163, N-(2-((Dimethylamino)methyl)quinolin-8-yl)-3-hydroxybenzenesulfonamide] | > 256 µg/mL | 8 µg/mL (≈ 22.4 µM) | > 256 µg/mL | > 256 µg/mL | > 256 µg/mL | > 256 µg/mL
CC(C)(C)OC(=O)N1CCCC(C(=O)N/N=C/c2ccc3cccc(NS(=O)(=O)c4ccc(C(F)(F)F)cc4)c3n2)C1 (mixture of isomers) [ZDR123, tert-Butyl (E/Z)-3-(2-((8-((4-(trifluoromethyl)phenyl)sulfonamido)quinolin-2-yl)methylene)hydrazine-1-carbonyl)piperidine-1-carboxylate] | > 256 µg/mL | 0.125 µg/mL | > 256 µg/mL | > 256 µg/mL | > 256 µg/mL | > 256 µg/mL
Cc1nc(C)c(S(=O)(=O)Nc2cccc3ccc(CN(C)C)nc23)s1 [ZDR203, N-(2-((Dimethylamino)methyl)quinolin-8-yl)-2,4-dimethylthiazole-5-sulfonamide] | 256 µg/mL (≈ 680 µM) | 0.5 µg/mL (≈ 1.33 µM) | > 256 µg/mL | 64 µg/mL (≈ 170 µM) | > 256 µg/mL | > 256 µg/mL
O=S(=O)(Nc1cccc2ccc(CNCCOCCOCCO)nc12)c1ccc(C(F)(F)F)cc1 [ZDR130, N-(2-(((2-(2-(2-Hydroxyethoxy)ethoxy)ethyl)amino)methyl)quinolin-8-yl)-4-(trifluoromethyl)benzenesulfonamide] | 64 µg/mL (≈ 125 µM) | 1 µg/mL (≈ 1.95 µM) | 128 µg/mL (≈ 249 µM) | 256 µg/mL (≈ 499 µM) | 256 µg/mL (≈ 499 µM) | 256 µg/mL (≈ 499 µM)
CO/N=C/c1ccc2cccc(NS(=O)(=O)c3ccc(C(F)(F)F)cc3)c2n1 [ZDR126, (E)-N-(2-((Methoxyimino)methyl)quinolin-8-yl)-4-(trifluoromethyl)benzenesulfonamide] | > 256 µg/mL | 0.125 µg/mL (≈ 0.305 µM) | > 256 µg/mL | > 256 µg/mL | > 256 µg/mL | > 256 µg/mL
CN(C)Cc1ccc2cccc(NS(=O)(=O)c3cccs3)c2n1 [ZDR080, N-(2-((Dimethylamino)methyl)quinolin-8-yl)thiophene-2-sulfonamide] | > 256 µg/mL | 0.25 µg/mL (≈ 0.719 µM) | > 256 µg/mL | > 256 µg/mL | > 256 µg/mL | > 256 µg/mL
O=S(=O)(Nc1cccc2ccc(CNc3ccccc3)nc12)c1ccc(C(F)(F)F)cc1 [ZDR108, N-(2-((Phenylamino)methyl)quinolin-8-yl)-4-(trifluoromethyl)benzenesulfonamide] | > 256 µg/mL | 0.25 µg/mL (≈ 0.546 µM) | 64 µg/mL (≈ 140 µM) | > 256 µg/mL | > 256 µg/mL | > 256 µg/mL
CN(C)Cc1ccc2cccc(NS(=O)(=O)c3ccc(S(C)(=O)=O)cc3)c2n1 [ZDR071, N-(2-((Dimethylamino)methyl)quinolin-8-yl)-4-(methylsulfonyl)benzenesulfonamide] | > 256 µg/mL | 4 µg/mL (≈ 9.53 µM) | > 256 µg/mL | > 256 µg/mL | > 256 µg/mL | > 256 µg/mL
